Patent US20240239801A1, “PYRIMIDO[5,4,D]PYRIMIDINE COMPOUNDS, COMPOSITIONS COMPRISING THEM AND USES THEREOF” (Université de Montréal, priority 2021, published 2024)
Read-outs that look alike come from different tables or passages of the source.

Key:
[1] = tested on: HCT116 pERK; test: Phospho-ERK inhibition, AlphaLISA SureFire Ultra p-ERK 1/2; format: cell-based, human; settings: for IC50: 1 h treatment; for HCT116 (Ymin %): lowest value of the pERK IC50 curve
Experimental: (§1) All cancer cell lines (A375, A101D, A2058, RKO, HT29 SK-MEL 30, IPC298, HepG2, HCT-116, Lovo, SW620, SW480, NCI-H358, NCI-H2122, Calu-6, NCIH2087, NCIH1755, NCIH1666 and Mewo) were obtained from ATCC and cultured in RPMI-1640 medium (Gibco) supplemented with 5% heat inactivated fetal bovine serum (FBS, Wisent) at 37° C. under 5% CO2. Cells were maintained in T175 flasks (Greiner). They were passaged by removing the culture medium, washing once in 10 mL of room temperature Phosphate Buffered Saline (PBS; Wisent) and incubating at 37° C. with 2 mL of 0.05% Trypsin (Thermo-Fisher). Trypsin was then inactivated by adding complete growth medium and the cells were then replated in a T175 culture dish at the appropriate dilution. All cell lines were routinely tested for mycoplasma contamination. Tissue type and mutational status of each cell line can be found in Table B.
(§2) AlphaLISA® SureFire® Ultra™ p-ERK ½ (Thr202/Tyr204) analysis was conducted on cells plated in 100 μL of complete RPMI-1640 growth medium in 96-well flat-bottomed transparent dishes (Costar) at a density indicated in Table C. Cells were maintained overnight at 37° C. under 5% CO2 before treatment with compounds' dilution series for one hour. The cell density in cells/cm^2 corresponds to cell number divided by the area of one well of a 96-well plate ([…]).
(§3) In a dilution series 100 μL/well of test substance dilution prepared in complete RPMI-1640 growth media was added to the cells. The dilution series is selected so that ten concentrations cover a range from 30 μM or 10 μM to 0.33 nM. If necessary, the initial concentration of 10 μM is increased to 100 μM or lowered to 1 μM (as in the case of A375 and NCIH1666 cells, which are generally more sensitive to the compounds) and further dilution is carried out accordingly. The final concentration of DMSO in the assay is set at 0.5%.
(§4) After treatment, media was removed, and cells were lysed in 50 μL of 1× AlphaScreen Ultra Lysis Buffer (Perkin Elmer). The AlphaLISA® SureFire® Ultra™ p-ERK ½ (Thr202/Tyr2O4) (PerkinElmer) reactions were performed with 5 μL of cell lysate according to the manufacturer's specifications in 384-well proxyplates (Perkin Elmer) followed by overnight incubation of the reactions at room temperature in a humidified chamber. After completion of the reactions, the signals were recorded on an EnVision plate reader (Perkin Elmer) using built in AlphaLISA® settings.
(§5) The effect of each compound dilution on the pERK signal was expressed in % inhibition and calculated as follows. An internal 100% inhibition control (1 μM trametinib, cat. No. HY-10999; MedChem Express; CAS No. 871700-17-3) was included in each plate and used as a measure of pERK background. First, the value obtained for trametinib was subtracted from each data point. The average of DMSO (vehicle) controls (set as 0% inhibition) was established and used to calculate % inhibition:
(§6) The ability of each compound to inhibit pERK signal was expressed as an IC50 value obtained by plotting the inhibition values for each data point of a dilution series and fitting the obtained curves using a log(agonist) versus response−variable slope (four parameters) function using GraphPadPrism (V7.0).
(§7) When present, paradoxical pERK induction is inferred from the negative % inhibition values observed in the pERK IC50 curves of a compound.

[2] = tested on: SW480 pERK; test: as above; format: cell-based, human; settings: for IC50: 1 h treatment; for SW480 (Ymin %): lowest value of the pERK IC50 curve
Experimental: as §1, §2, §3, §4, §5, §6, §7

[3] = Table 2, read-out: SW480 PERK IC50 (UM)
[4] = Table 3, read-out: SW480 PERK IC50

IC50 ([1]; Table 2) [µM]	IC50 [2, 3] [µM]	IC50 ([1]; Table 3) [µM]	IC50 [2, 4] [µM]	SMILES	HCT116 (Ymin %) ([1]; Table 2) [%]	SW480 (Ymin %) ([2]; Table 2) [%]	HCT116 (Ymin %) ([1]; Table 3) [%]	SW480 (Ymin %) ([2]; Table 3) [%]	also measured
1 to 10	1 to 10			CSc1ncc2ncnc(Nc3c(F)ccc(NS(=O)(=O)c4ccc5c(c4)CCO5)c3F)c2n1 [Example 4]	−5	−2			
		10 to 30	10 to 30	COc1ccc(S(=O)(=O)Nc2ccc(F)c(Nc3ncnc4cnc(Oc5cccc(N)c5)nc34)c2F)cc1 [Example 54]			−7	8	
		10 to 30	1 to 10	O=S(=O)(Nc1ccc(F)c(Nc2ncnc3cnc(N4CC[C@H](F)C4)nc23)c1F)c1ccc2c(c1)CCO2 [Example 66]			10	0	
		1 to 10	1 to 10	COc1ccc(S(=O)(=O)Nc2ccc(F)c(Nc3ncnc4cnc(N5CC[C@H](F)C5)nc34)c2F)c(F)c1 [Example 44]			−2	12	
10 to 30	10 to 30			CSc1ncc2ncnc(Nc3c(F)ccc(NS(=O)(=O)c4ccc(Cl)cc4Cl)c3F)c2n1 [Example 15]	−3	0			
		1 to 10	1 to 10	COc1ccc(S(=O)(=O)Nc2ccc(F)c(Nc3ncnc4cnc(N5CC(F)(F)C5)nc34)c2F)cc1 [Example 48]			13	6	
1 to 10	1 to 10			CSc1ncc2ncnc(Nc3c(F)ccc(NS(=O)(=O)c4ccccc4C)c3F)c2n1 [Example 20]	7	12			
1 to 10	1 to 10			COc1ccc(S(=O)(=O)Nc2ccc(F)c(Nc3ncnc4cnc(SC)nc34)c2F)c(F)c1 [Example 8]	−3	15			
10 to 30	10 to 30			COC1CN(S(=O)(=O)Nc2ccc(F)c(Nc3ncnc4cnc(SC)nc34)c2F)C1 [Example 25]	7	−6			
		1 to 10	1 to 10	COc1ccc(S(=O)(=O)Nc2ccc(F)c(Nc3ncnc4cnc(-n5cnc6ccccc65)nc34)c2F)c(F)c1 [Example 45]			11	−8	
		1 to 10	1 to 10	CO[C@@H]1CCN(S(=O)(=O)Nc2ccc(F)c(Nc3ncnc4cnc(N5CC[C@H](F)C5)nc34)c2F)C1 [Example 60]			9	15	
		1 to 10	1 to 10	COc1ccc(S(=O)(=O)Nc2ccc(F)c(Nc3ncnc4cnc(-n5cnc(C)c5C)nc34)c2F)c(C)c1 [Example 56]			−10	4	
		1 to 10	1 to 10	O=S(=O)(Nc1ccc(F)c(Nc2ncnc3cnc(-n4cnc5ccccc54)nc23)c1F)N1CCCC1 [Example 77]			−4	−4	
		1 to 10	1 to 10	COc1ccc(S(=O)(=O)Nc2ccc(F)c(Nc3ncnc4cnc(N5CC(F)(F)C5)nc34)c2F)c(F)c1 [Example 50]			8	−9	
		10 to 30	10 to 30	COc1ccc(S(=O)(=O)Nc2ccc(F)c(Nc3ncnc4cnc(N5CC[C@@H](F)C5)nc34)c2F)cc1 [Example 38]			−1	−3	
		10 to 30	10 to 30	COc1ccc(S(=O)(=O)Nc2ccc(F)c(Nc3ncnc4cnc(N5CCC(F)(F)C5)nc34)c2F)cc1 [Example 39]			5	−3	
1 to 10	1 to 10			CSc1ncc2ncnc(Nc3c(F)ccc(NS(=O)(=O)c4ccc(C)cc4C)c3F)c2n1 [Example 23]	0	−7			
		1 to 10	10 to 30	COc1ccc(S(=O)(=O)Nc2ccc(F)c(Nc3ncnc4cnc(-n5cnc(C)c5)nc34)c2F)cc1OC [Example 30]			−6	−5	
		1 to 10	1 to 10	O=S(=O)(Nc1ccc(F)c(Nc2ncnc3cnc(-n4cnc5ccccc54)nc23)c1F)N1CCC(CCl)C1 (stereo not shown) [Example 75]			−10	−6	
1 to 10	1 to 10			COC(=O)c1sccc1S(=O)(=O)Nc1ccc(F)c(Nc2ncnc3cnc(SC)nc23)c1F [Example 3]	−7	9			
		1 to 10	1 to 10	CO[C@@H]1CCN(S(=O)(=O)Nc2ccc(F)c(Nc3ncnc4cnc(-n5ccc6ccccc65)nc34)c2F)C1 [Example 68]			17	0	
		1 to 10	1 to 10	COc1ccc(S(=O)(=O)Nc2ccc(F)c(Nc3ncnc4cnc(N5CC(F)C5)nc34)c2F)c(F)c1 [Example 52]			−4	−8	
		1 to 10	1 to 10	CCC1CCN(S(=O)(=O)Nc2ccc(F)c(Nc3ncnc4cnc(-n5cnc6ccccc65)nc34)c2F)C1 (stereo not shown) [Example 76]			−1	−9	
		1 to 10	1 to 10	CO[C@@H]1CCN(S(=O)(=O)Nc2ccc(F)c(Nc3ncnc4cnc(-n5ccc6cccnc65)nc34)c2F)C1 [Example 71]			8	−4	
10 to 30	1 to 10			CSc1ncc2ncnc(Nc3c(F)ccc(NS(=O)(=O)N4CCCC4)c3F)c2n1 [Example 24]	10	13			
		1 to 10	1 to 10	O=S(=O)(Nc1ccc(F)c(Nc2ncnc3cnc(-n4cnc5ccccc54)nc23)c1F)c1ccc2c(c1)CCO2 [Example 64]			2	19	
				COc1ccc(S(=O)(=O)Nc2ccc(F)c(Nc3ncnc4c(N)nc(-n5cnc(C)c5C)nc34)c2F)cc1 [Example 85]					IC50 ([1]; Table 4): 10 to 30 µM; HCT116 (Ymin %) ([1]; Table 4): 8%; IC50 ([2]; Table 4, read-out: SW480 PERK IC50): 1 to 10 µM; SW480 (Ymin %) ([2]; Table 4): 4%
		1 to 10	1 to 10	COc1ccc(S(=O)(=O)Nc2ccc(F)c(Nc3ncnc4cnc(-n5cnc6ccccc65)nc34)c2F)c(C)c1 [Example 55]			−4	−2	
10 to 30				CSc1ncc2ncnc(Nc3c(F)ccc(NS(=O)(=O)N4CCC(F)(F)C4)c3F)c2n1 [Example 27]	−6				

SMILES	IC50 ([1]; Table 2) [µM]	IC50 [2, 3] [µM]	IC50 ([1]; Table 3) [µM]	IC50 [2, 4] [µM]	HCT116 (Ymin %) ([1]; Table 2) [%]	SW480 (Ymin %) ([2]; Table 2) [%]	HCT116 (Ymin %) ([1]; Table 3) [%]	SW480 (Ymin %) ([2]; Table 3) [%]	also measured
COc1ccc(S(=O)(=O)Nc2ccc(F)c(Nc3ncnc4cnc(SC)nc34)c2F)c(C)c1 [Example 12]	1 to 10	1 to 10			−7	−10			
COc1ccc(S(=O)(=O)Nc2ccc(F)c(Nc3ncnc4cnc(-n5cnc6ccccc65)nc34)c2F)cc1 [Example 36]			1 to 10	1 to 10			10	10	
COc1ccc(S(=O)(=O)Nc2ccc(F)c(Nc3ncnc4cnc(SC)nc34)c2F)cc1OC [Example 2]	1 to 10	1 to 10			−14	5			
COc1ccc(S(=O)(=O)Nc2ccc(F)c(Nc3ncnc4cnc(SC)nc34)c2F)c(C#N)c1 [Example 7]	10 to 30	1 to 10			7	17			
